# Results: patent US20210238173A1, “MITOGEN-ACTIVATED PROTEIN KINASE KINASE 7 INHIBITORS” (Yeda Research and Development Co. Ltd., priority 2018, published 2021)
# How the values were obtained:
# [1] = target: MAPK8 (JNK1) (Homo sapiens, UniProt P45983); assay: Kinome selectivity screen MAPK8; type: biochemical; conditions: 1 μM compound
# Description: (§1) Kinome Selectivity Screen:
# (§2) Kinase selectivity was assessed using the Life Technologies SelectScreen Kinase Profiling Service in a custom panel of 76 kinases selected to provide broad representative coverage of all kinase families. Kinase activity assays employed either the Z′-LYTE or Adapta assay technologies with ATP concentrations at or near the KM, ATP for each kinase and a test compound concentration of 1 μM.
# [2] = target: INSR (Homo sapiens, UniProt P06213); assay: Kinome selectivity screen INSR; type: biochemical; conditions: 1 μM compound
# Description: as §1, §2
# [3] = target: FGFR1 (Homo sapiens, UniProt P11362); assay: Kinome selectivity screen FGFR1; type: biochemical; conditions: 1 μM compound
# Description: as §1, §2
# [4] = target: PIM1 (Homo sapiens, UniProt P11309); assay: Kinome selectivity screen PIM1; type: biochemical; conditions: 1 μM compound
# Description: as §1, §2
# [5] = target: LCK (Homo sapiens, UniProt P06239); assay: Kinome selectivity screen LCK; type: biochemical; conditions: 1 μM compound
# Description: as §1, §2
# [6] = target: TEK (Tie2) (Homo sapiens, UniProt Q02763); assay: Kinome selectivity screen TEK; type: biochemical; conditions: 1 μM compound
# Description: as §1, §2
# [7] = target: PIM2 (Homo sapiens, UniProt Q9P1W9); assay: Kinome selectivity screen PIM2; type: biochemical; conditions: 1 μM compound
# Description: as §1, §2
# [8] = target: PRKCE (PKC epsilon) (Homo sapiens, UniProt Q02156); assay: Kinome selectivity screen PRKCE; type: biochemical; conditions: 1 μM compound
# Description: as §1, §2
# [9] = target: KIT (Homo sapiens, UniProt P10721); assay: Kinome selectivity screen KIT; type: biochemical; conditions: 1 μM compound
# Description: as §1, §2
# [10] = target: MET (cMet) (Homo sapiens, UniProt P08581); assay: Kinome selectivity screen MET; type: biochemical; conditions: 1 μM compound
# Description: as §1, §2
# [11] = target: GRK4 (Homo sapiens, UniProt P32298); assay: Kinome selectivity screen GRK4; type: biochemical; conditions: 1 μM compound
# Description: as §1, §2
# [12] = target: JAK3 (Homo sapiens, UniProt P52333); assay: Kinome selectivity screen JAK3; type: biochemical; conditions: 1 μM compound
# Description: as §1, §2
# [13] = target: PRKACA (PKA) (Homo sapiens, UniProt P17612); assay: Kinome selectivity screen PRKACA; type: biochemical; conditions: 1 μM compound
# Description: as §1, §2
# [14] = target: MAPKAPK2 (Homo sapiens, UniProt P49137); assay: Kinome selectivity screen MAPKAPK2; type: biochemical; conditions: 1 μM compound
# Description: as §1, §2
# [15] = target: LRRK2 (Homo sapiens, UniProt Q5S007); assay: Kinome selectivity screen LRRK2; type: biochemical; conditions: 1 μM compound
# Description: as §1, §2
# [16] = target: ACVR1B (ALK4) (Homo sapiens, UniProt P36896); assay: Kinome selectivity screen ACVR1B; type: biochemical; conditions: 1 μM compound
# Description: as §1, §2
# [17] = target: PKN1 (PRK1) (Homo sapiens, UniProt Q16512); assay: Kinome selectivity screen PKN1; type: biochemical; conditions: 1 μM compound
# Description: as §1, §2
# [18] = test system: pP38 in HEK293 cells; assay: pP38 response in HEK293 cells; type: cell-based; conditions: at 10 μM
# Description: To rapidly assess the cellular activity (EC50) with full dose response curves of the MKK7 covalent inhibitors, according to some embodiments of the present invention, an in-cell western assay was adapted to a 384 well plate format over traditional western blot, and monitored phospho-JNK (pJNK) levels in response to osmotic shock. We first characterized the dynamics of pJNK in response to sorbitol. Sufficient dynamic range for pJNK is achieved at 20 minutes in HEK293 cells and at 40 minutes in 3T3 and Beas2B cells. The compound's activity was assessed by pre-treating cells with either compound or DMSO for 2 hours, followed by Sorbitol stimulation. The response of pJNK, and its substrates, pc-Jun and pATF2, was measured, as well as pP38, which is a substrate of MKK4 but not MKK7, and pERK in HEK293 cells, and the results are presented in Table 5 below.
# With similar values for pcJun (2.26 μM and 1.67 μM, respectively) and pATF2 (2.79 μM 5.19 μM, respectively).
# [19] = target: PRKCD (PKC delta) (Homo sapiens, UniProt Q05655); assay: Kinome selectivity screen PRKCD; type: biochemical; conditions: 1 μM compound
# Description: as §1, §2
# [20] = target: FLT4 (VEGFR3) (Homo sapiens, UniProt P35916); assay: Kinome selectivity screen FLT4; type: biochemical; conditions: 1 μM compound
# Description: as §1, §2
# [21] = target: RET (Homo sapiens, UniProt P07949); assay: Kinome selectivity screen RET; type: biochemical; conditions: 1 μM compound
# Description: as §1, §2
# [22] = target: MAPK14 (p38 alpha) (Homo sapiens, UniProt Q16539); assay: Kinome selectivity screen MAPK14; type: biochemical; conditions: 1 μM compound
# Description: as §1, §2
# [23] = target: RPS6KA3 (RSK2) (Homo sapiens, UniProt P51812); assay: Kinome selectivity screen RPS6KA3; type: biochemical; conditions: 1 μM compound
# Description: as §1, §2
# [24] = target: PLK1 (Homo sapiens, UniProt P53350); assay: Kinome selectivity screen PLK1; type: biochemical; conditions: 1 μM compound
# Description: as §1, §2
# [25] = target: TAOK2 (TAO1) (Homo sapiens, UniProt Q9UL54); assay: Kinome selectivity screen TAOK2; type: biochemical; conditions: 1 μM compound
# Description: as §1, §2
# [26] = target: GSK3B (GSK3 beta) (Homo sapiens, UniProt P49841); assay: Kinome selectivity screen GSK3B; type: biochemical; conditions: 1 μM compound
# Description: as §1, §2
# [27] = target: CDK1/cyclin B (Homo sapiens, UniProt P06493); assay: Kinome selectivity screen CDK1/cyclin B; type: biochemical; conditions: 1 μM compound
# Description: as §1, §2
# [28] = target: AMPK A1/B1/G1 (Homo sapiens, UniProt Q13131); assay: Kinome selectivity screen AMPK; type: biochemical; conditions: 1 μM compound
# Description: as §1, §2
# [29] = target: CDK9/cyclin T1 (Homo sapiens, UniProt P50750); assay: Kinome selectivity screen CDK9/cyclin T1; type: biochemical; conditions: 1 μM compound
# Description: as §1, §2
# [30] = target: EGFR (ErbB1) (Homo sapiens, UniProt P00533); assay: Kinome selectivity screen EGFR; type: biochemical; conditions: 1 μM compound
# Description: as §1, §2
# [31] = target: PDK1 Direct (Homo sapiens, UniProt O15530); assay: Kinome selectivity screen PDK1 Direct; type: biochemical; conditions: 1 μM compound
# Description: as §1, §2
# [32] = target: FLT1 (VEGFR1) (Homo sapiens, UniProt P17948); assay: Kinome selectivity screen FLT1; type: biochemical; conditions: 1 μM compound
# Description: as §1, §2
# Chain of RET (P07949 29-1114): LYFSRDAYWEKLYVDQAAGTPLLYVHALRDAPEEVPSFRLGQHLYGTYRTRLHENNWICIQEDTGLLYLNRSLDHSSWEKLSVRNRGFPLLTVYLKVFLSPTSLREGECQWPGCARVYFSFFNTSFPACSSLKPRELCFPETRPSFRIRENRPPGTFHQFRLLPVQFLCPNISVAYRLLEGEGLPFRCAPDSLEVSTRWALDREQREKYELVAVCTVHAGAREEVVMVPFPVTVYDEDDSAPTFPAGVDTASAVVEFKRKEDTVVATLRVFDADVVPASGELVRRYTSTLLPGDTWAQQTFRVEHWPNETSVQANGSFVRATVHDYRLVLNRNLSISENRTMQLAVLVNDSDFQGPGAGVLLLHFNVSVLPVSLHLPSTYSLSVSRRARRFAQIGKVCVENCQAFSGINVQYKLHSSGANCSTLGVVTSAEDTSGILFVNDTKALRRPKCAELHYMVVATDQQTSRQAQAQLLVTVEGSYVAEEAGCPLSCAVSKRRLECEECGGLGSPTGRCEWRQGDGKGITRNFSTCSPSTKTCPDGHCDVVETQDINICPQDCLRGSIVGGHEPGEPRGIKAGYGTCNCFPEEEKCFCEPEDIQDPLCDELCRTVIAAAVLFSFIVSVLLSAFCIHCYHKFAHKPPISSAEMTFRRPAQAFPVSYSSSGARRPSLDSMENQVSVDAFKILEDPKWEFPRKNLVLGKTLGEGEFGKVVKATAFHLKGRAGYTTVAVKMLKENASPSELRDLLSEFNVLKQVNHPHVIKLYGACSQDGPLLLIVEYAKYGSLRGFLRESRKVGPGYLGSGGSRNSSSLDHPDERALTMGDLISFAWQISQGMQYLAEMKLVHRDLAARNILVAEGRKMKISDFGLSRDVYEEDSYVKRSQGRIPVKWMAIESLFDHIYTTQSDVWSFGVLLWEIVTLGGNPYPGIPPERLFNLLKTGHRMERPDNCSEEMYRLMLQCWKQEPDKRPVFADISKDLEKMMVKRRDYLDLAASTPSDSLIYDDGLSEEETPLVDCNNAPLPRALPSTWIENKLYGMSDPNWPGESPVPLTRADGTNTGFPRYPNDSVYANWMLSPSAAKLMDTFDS
# Chain of FLT1 (VEGFR1) (P17948 27-1338): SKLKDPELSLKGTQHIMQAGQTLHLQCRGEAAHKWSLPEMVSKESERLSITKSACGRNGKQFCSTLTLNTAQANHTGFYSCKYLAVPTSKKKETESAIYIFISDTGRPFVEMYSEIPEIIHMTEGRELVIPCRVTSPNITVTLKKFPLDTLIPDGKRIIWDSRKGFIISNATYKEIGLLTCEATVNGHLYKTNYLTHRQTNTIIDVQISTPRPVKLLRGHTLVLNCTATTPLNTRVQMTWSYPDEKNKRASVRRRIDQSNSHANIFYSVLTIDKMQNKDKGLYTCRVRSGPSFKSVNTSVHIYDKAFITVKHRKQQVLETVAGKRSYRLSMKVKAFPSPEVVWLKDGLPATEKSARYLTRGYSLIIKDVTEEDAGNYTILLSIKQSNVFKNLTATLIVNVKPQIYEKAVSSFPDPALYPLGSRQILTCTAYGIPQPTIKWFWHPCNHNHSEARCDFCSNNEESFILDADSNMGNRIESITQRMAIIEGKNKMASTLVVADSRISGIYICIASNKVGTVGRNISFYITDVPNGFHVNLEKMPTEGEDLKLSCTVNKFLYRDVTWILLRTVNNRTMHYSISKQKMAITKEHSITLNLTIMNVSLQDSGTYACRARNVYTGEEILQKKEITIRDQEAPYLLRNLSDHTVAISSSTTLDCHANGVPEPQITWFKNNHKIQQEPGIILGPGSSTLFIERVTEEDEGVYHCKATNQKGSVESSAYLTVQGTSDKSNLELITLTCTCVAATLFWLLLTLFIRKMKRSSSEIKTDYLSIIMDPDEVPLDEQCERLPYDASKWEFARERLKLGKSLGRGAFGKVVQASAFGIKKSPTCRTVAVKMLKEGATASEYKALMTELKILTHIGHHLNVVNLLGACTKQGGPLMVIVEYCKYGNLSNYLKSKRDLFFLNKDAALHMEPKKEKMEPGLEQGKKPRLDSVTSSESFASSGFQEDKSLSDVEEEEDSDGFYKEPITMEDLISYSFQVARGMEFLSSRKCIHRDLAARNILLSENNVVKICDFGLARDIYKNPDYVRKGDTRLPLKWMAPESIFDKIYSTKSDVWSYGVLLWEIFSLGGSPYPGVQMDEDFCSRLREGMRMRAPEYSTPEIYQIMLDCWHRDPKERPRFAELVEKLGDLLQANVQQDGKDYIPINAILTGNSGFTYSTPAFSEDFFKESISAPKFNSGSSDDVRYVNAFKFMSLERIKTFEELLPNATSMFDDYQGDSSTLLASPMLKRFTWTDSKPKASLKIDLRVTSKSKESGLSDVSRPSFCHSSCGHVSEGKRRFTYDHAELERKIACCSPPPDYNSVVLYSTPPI
# Chain of MET (cMet) (P08581 25-1390): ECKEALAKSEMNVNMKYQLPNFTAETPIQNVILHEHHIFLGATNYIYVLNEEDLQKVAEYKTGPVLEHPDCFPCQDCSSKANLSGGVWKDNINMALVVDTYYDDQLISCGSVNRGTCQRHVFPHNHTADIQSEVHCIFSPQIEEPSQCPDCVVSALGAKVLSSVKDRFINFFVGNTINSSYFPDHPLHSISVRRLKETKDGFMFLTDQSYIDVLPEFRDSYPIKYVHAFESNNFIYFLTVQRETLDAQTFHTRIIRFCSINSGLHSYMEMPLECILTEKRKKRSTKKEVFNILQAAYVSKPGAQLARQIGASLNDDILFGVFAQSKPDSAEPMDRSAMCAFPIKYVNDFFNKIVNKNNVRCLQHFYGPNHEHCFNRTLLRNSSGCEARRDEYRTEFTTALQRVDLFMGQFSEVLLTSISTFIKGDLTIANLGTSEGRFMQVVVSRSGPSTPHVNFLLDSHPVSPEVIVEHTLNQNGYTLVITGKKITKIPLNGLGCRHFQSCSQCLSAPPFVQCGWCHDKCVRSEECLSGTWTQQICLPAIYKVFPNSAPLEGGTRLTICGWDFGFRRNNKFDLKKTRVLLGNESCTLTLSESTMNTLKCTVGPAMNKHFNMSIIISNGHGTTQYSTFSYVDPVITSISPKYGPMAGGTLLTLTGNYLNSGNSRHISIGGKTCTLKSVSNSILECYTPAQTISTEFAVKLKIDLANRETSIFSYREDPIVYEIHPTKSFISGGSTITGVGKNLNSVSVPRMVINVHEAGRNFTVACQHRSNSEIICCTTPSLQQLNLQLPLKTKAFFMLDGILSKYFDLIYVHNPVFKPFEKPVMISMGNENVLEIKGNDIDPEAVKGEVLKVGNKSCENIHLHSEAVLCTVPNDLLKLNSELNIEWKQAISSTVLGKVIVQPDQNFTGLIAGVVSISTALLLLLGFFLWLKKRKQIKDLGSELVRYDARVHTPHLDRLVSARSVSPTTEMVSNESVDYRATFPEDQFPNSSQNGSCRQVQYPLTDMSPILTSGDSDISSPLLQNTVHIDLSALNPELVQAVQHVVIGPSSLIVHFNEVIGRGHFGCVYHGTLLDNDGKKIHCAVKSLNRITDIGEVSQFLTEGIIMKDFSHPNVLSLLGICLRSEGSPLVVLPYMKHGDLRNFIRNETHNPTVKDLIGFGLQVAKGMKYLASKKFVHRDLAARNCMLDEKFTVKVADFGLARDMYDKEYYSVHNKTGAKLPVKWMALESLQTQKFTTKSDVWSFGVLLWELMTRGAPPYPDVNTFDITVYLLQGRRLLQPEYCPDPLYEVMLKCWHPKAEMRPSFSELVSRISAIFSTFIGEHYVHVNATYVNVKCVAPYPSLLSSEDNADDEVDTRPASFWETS
# Chain of PKN1 (PRK1) (Q16512 whole entry): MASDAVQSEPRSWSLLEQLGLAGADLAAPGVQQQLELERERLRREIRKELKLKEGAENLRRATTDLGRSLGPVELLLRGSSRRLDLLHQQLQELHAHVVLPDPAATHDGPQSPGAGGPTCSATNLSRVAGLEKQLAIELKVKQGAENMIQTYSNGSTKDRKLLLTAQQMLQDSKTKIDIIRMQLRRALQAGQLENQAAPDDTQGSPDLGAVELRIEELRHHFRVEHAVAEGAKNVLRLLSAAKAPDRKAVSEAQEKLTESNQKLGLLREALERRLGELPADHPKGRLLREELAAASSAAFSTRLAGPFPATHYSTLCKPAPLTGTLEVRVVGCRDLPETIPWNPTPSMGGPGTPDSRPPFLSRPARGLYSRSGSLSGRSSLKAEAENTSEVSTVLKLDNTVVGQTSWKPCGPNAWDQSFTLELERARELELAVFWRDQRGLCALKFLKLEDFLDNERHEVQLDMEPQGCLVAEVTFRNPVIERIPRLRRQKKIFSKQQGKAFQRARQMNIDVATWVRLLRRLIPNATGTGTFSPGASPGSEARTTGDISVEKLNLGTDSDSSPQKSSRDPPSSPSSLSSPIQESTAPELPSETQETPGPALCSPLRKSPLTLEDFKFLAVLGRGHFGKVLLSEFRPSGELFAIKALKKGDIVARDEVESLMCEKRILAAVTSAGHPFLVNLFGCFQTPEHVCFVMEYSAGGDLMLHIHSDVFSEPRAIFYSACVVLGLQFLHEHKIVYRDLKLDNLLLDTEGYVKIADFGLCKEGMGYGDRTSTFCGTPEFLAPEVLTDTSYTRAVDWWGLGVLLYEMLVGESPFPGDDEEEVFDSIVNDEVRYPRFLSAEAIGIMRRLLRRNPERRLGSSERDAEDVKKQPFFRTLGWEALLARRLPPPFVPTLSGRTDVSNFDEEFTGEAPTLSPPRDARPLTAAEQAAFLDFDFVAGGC
# Chain of MAPKAPK2 (P49137 whole entry): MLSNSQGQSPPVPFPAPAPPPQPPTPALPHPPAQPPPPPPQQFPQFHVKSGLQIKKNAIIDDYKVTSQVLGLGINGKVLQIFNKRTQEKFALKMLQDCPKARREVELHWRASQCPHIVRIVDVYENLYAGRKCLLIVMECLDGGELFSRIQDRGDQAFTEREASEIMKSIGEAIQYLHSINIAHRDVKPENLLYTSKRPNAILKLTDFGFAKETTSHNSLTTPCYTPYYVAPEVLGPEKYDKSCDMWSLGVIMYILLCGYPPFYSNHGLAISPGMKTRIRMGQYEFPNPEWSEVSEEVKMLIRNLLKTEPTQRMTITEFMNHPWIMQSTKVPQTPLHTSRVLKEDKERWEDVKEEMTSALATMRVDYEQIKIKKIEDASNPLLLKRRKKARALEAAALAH
Compound,inhibition at 1 µM [1] [%],inhibition at 1 µM [2] [%],inhibition at 1 µM [3] [%],inhibition at 1 µM [4] [%],inhibition at 1 µM [5] [%],inhibition at 1 µM [6] [%],inhibition at 1 µM [7] [%],inhibition at 1 µM [8] [%],inhibition at 1 µM [9] [%],inhibition at 1 µM [10] [%],inhibition at 1 µM [11] [%],inhibition at 1 µM [12] [%],inhibition at 1 µM [13] [%],inhibition at 1 µM [14] [%],inhibition at 1 µM [15] [%],inhibition at 1 µM [16] [%],inhibition at 1 µM [17] [%],effect on pP38 levels [18],inhibition at 1 µM [19] [%],inhibition at 1 µM [20] [%],other results
C=CC(=O)Nc1cccc(-c2n[nH]c3ccccc23)c1 [GO32],15,-10,2,1,5,25,-2,20,17,9,-5,89,-8,2,95,-8,4,no effect,9,-2,inhibition at 1 µM [21]: 6%; inhibition at 1 µM [22]: 9%; inhibition at 1 µM [23]: 2%; inhibition at 1 µM [24]: 1%; inhibition at 1 µM [25]: 12%; inhibition at 1 µM [26]: -10%; inhibition at 1 µM [27]: 19%; inhibition at 1 µM [28]: -5%; inhibition at 1 µM [29]: 3%; inhibition at 1 µM [30]: -6%; inhibition at 1 µM [31]: 22%; inhibition at 1 µM [32]: -1%
C=CC(=O)Nc1cccc(-c2n[nH]c3cc(C)ccc23)c1 [GO80],16,-7,-2,5,5,1,3,21,10,13,-3,64,-10,1,94,5,1,did not affect,7,0,inhibition at 1 µM [21]: 5%; inhibition at 1 µM [22]: 16%; inhibition at 1 µM [23]: -1%; inhibition at 1 µM [24]: 3%; inhibition at 1 µM [25]: 14%; inhibition at 1 µM [26]: -8%; inhibition at 1 µM [27]: 22%; inhibition at 1 µM [28]: -5%; inhibition at 1 µM [29]: 5%; inhibition at 1 µM [30]: -4%; inhibition at 1 µM [31]: 26%; inhibition at 1 µM [32]: 2%
